Counter-ions that a name gives are not always drawn.
Target: T1, rh beta tryptase (Homo sapiens, UniProt Q15661)
T1 construct: purchased Promega
Assay: tryptase inhibition test (cleavage of N-p-tosyl-Gly-Pro-Lys-para-nitroaniline, p-nitroaniline measured at 405 nm)
Assay type: biochemical
Details: Tris HCl buffer pH 7.4 with calcium and heparin; substrate 0.6 mM; 5 min pre-incubation, 5 min incubation at 37° C.; enzyme activity 0.91 U/ml
Method: The compounds according to the invention are characterised by their tryptase-inhibiting activity. This ability to inhibit tryptase was investigated using the test described below. The measurement is carried out in Tris HCl buffer (100 mM), which additionally contains calcium (5 mM) and heparin (100 mg/ml), at pH 7.4. The standard used is rh beta tryptase which may be obtained commercially from Promega, for example. The substrate used is N-p-tosyl-Gly-Pro-Lys-para-nitroaniline in a concentration of 0.6 mM. The substrate is digested with tryptase to form p-nitroaniline which can be measured at 405 nm. Usually, an incubation period of 5 minutes and an incubation temperature of 37° C. are chosen. The enzyme activity used is 0.91 U/ml. The measurements are carried out in an Autoanalyser (CobasBio) made by Hofmann LaRoche. The potential inhibitory substances are used in concentrations of 10 μM in the screening, the inhibition of the tryptase being given in percent. The IC50 is determined at over 70% inhibition (concentration at which 50% of the enzyme activity is inhibited). After 5 minutes' pre-incubation of the potential inhibitory substances, the substrate is added to start the reaction, the formation of p-nitroaniline being taken as a measurement of the enzyme activity after 5 minutes, after testing the linearity.
The data obtained after the above test has been carried out (IC50 values) can be found in Table 3.

T1 sequence (Q15661 31-275): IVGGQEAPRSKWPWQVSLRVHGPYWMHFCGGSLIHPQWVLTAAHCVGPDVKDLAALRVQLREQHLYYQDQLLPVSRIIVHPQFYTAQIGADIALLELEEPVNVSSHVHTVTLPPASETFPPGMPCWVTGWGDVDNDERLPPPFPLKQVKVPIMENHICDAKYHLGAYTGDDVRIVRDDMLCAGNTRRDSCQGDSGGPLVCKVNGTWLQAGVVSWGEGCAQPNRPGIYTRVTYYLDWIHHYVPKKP

Compound | IC50 [nM]
CCN(CC)CCN(c1ccc2c(c1)nc(CCc1ccc(C(=N)N)cc1)n2CCO)S(=O)(=O)c1ccccc1 [Example 16, 1-(2-hydroxyethyl)-2-[2-(4-amidinophenyl)-ethyl]-5-[N-(2-diethylaminoethyl)-benzene-sulphonylamino]-benzimidazole] | 121
CCN(CC)CCN(c1ccc2c(c1)nc(CCc1ccc(C(=N)N)cc1)n2C)S(=O)(=O)c1ccc2ccccc2c1 [Example 35, 1-methyl-2-[2-(4-amidino-phenyl)-ethyl]-5-[N-(2-diethylaminoethyl)-naphth-2-yl-sulphonylamino]-benzimidazole] | 6.6
Cn1c(CCc2ccc(C(=N)N)cc2)nc2cc(N(CC(=O)N3CCN(c4ccncc4)CC3)S(=O)(=O)c3ccc4ccccc4c3)ccc21 [Example 49, 1-Methyl-2-[2-(4-amidino-phenyl)-ethyl]-5-[N-(4′-pyrid-4″- yl-piperazin-1-yl-carbonyl-methyl)-naphth-2-ylsulphonyl-amino]-benzimidazole] | 186
CCN(CC)CCN(c1ccc2c(c1)nc(CCc1ccc(C(=N)N)cc1)n2CCOC)S(=O)(=O)c1ccccc1 [Example 17, 1-(2-methoxyethyl)-2-[2-(4-amidinophenyl)-ethyl]-5-[N-(2-diethylaminoethyl)-benezene-sulphonylamino]-benzimidazole] | 62
1-Methyl-2-[2-(4-amidino- phenyl)-ethyl]-5-[N-(4′-(3″- hydroxypropyl)-piperazin-1-yl- carbonylmethyl)-naphth-2-yl- sulphonylamino]-benzimidazole [Example 51] | 35
CCN(CC)CCN(c1ccc2c(c1)nc(CCc1ccc(C(=N)N)cc1)n2CCCc1ccccc1)S(=O)(=O)c1ccccc1 [Example 25, 1-(3-phenylpropyl)-2-[2-(4-amidinophenyl)-ethyl]-5-[N-(2-diethylaminoethyl)-benzene-sulphonylamino]-benzimidazole] | 412
CN(C)c1ccc(CN(c2ccc3c(c2)nc(CCc2ccc(C(=N)N)cc2)n3C)S(=O)(=O)c2ccccc2)cc1 [Example 4, N-{2-[2-(4-amidinophenyl)-ethyl]-1-methyl-benzimidazol-5-yl}-N-(4-dimethylaminobenzyl)-(benzenesulphonamide)-dihydrochloride] | 123
Cn1c(CCc2ccc(C(=N)N)cc2)nc2cc(N(C3CCNCC3)S(=O)(=O)c3ccccc3)ccc21 [Example 11, 1-methyl-2-[2-(4-amidino-phenyl)-ethyl]-5-[N-(4-piperidinyl)-benzenesulphonyl-amino]-benzimidazole] | 90
CCN(CC)CCN(c1ccc2c(c1)nc(CCc1ccc(C(=N)N)cc1)n2CCc1ccccc1)S(=O)(=O)c1ccccc1 [Example 24, 1-(2-phenylethyl)-2-[2-(4-amidinophenyl)-ethyl]-5-[N-(2-diethylaminoethyl)-benzene-sulphonylamino]-benzimidazole] | 190
CCN(CC)CCN(c1ccc2c(c1)nc(CCc1ccc(C(=N)N)cc1)n2CCOc1ccccc1OC)S(=O)(=O)c1ccccc1 [Example 26, 1-[2-(2-methoxyphenoxy)ethyl]-2-[2-(4-amidinophenyl)-ethyl]-5-[N-(2-diethylaminoethyl)-benzenesulphonylamino]-benzimidazole] | 74
CCCN(CCC)C1CCC(N(c2ccc3c(c2)nc(CCc2ccc(C(=N)N)cc2)n3C)S(=O)(=O)c2ccccc2)CC1 (stereo not shown) [Example 7, 1-methyl-2-[2-(4-amidino-phenyl)-ethyl]-5-[N-(4-dipropyl-amino-cyclohexanyl)-benzene-sulphonyl-amino]-benzimidazole] | 109
CCN(CC)CCN(c1ccc2c(c1)nc(CCc1ccc(C(=N)N)cc1)n2C)S(=O)(=O)c1csc2ccccc12 [Example 43, 1-Methyl-2-[2-(4-amidino-phenyl)-ethyl]-5-[N-(2-diethyl-aminoethyl)-benzo[b]thien-3-yl-sulphonylamino]-benzimidazole] | 25
Cn1c(CCc2ccc(C(=N)N)cc2)nc2cc(N(C3CCN(Cc4ccccc4)CC3)S(=O)(=O)c3ccccc3)ccc21 [Example 13, 1-methyl-2-[2-(4-amidino-phenyl)-ethyl]-5-[N-(1-benzyl-piperidin-4-yl)-benzene-sulphonylamino]-benzimidazole] | 76
CCCn1c(CCc2ccc(C(=N)N)cc2)nc2cc(N(CCN(CC)CC)S(=O)(=O)c3ccccc3)ccc21 [Example 18, 1-n-propyl-2-[2-(4-amidino-phenyl)-ethyl]-5-[N-(2-diethyl-aminoethyl)-benzenesulphonyl-amino]-benzimidazole] | 292
CCN(CC)CCN(c1ccc2c(c1)nc(CCc1ccc(C(=N)N)cc1)n2CCCO)S(=O)(=O)c1ccccc1 [Example 19, 1-(3-hydroxypropyl)-2-[2-(4-amidinophenyl)-ethyl]-5-[N-(2-diethylaminoethyl)-benzene-sulphonylamino]-benzimidazole] | 239
CCOCCCn1c(CCc2ccc(C(=N)N)cc2)nc2cc(N(CCN(CC)CC)S(=O)(=O)c3ccccc3)ccc21 [Example 3, N-{2-[2-(4-amidinophenyl)-ethyl]-1-(3-ethoxy-propyl)-benzimidazol-5-yl}-N-diethylaminoethyl-(benzenesulphonamide)-dihydrochloride] | 132
Cn1c(CCc2ccc(C(=N)N)cc2)nc2cc(N(CCN3CCOCC3)S(=O)(=O)c3ccc4ccccc4c3)ccc21 [Example 47, 1-Methyl-2-[2-(4-amidino-phenyl)-ethyl]-5-[N-(2-morpholinoethyl)-naphth-2-yl-sulphonylamino]-benzimidazole] | 70.3
CCN(CC)CCN(c1ccc2c(c1)nc(CCc1ccc(C(=N)N)cc1)n2C)S(=O)(=O)c1cccc2ccccc12 [Example 28, 1-methyl-2-[2-(4-amidino-phenyl)-ethyl]-5-[N-(2-diethyl-aminoethyl)-naphth-1-yl-sulphonylamino]-benzimidazole] | 27
Cn1c(CCc2ccc(C(=N)N)cc2)nc2cc(N(C3CCNC3)S(=O)(=O)c3ccccc3)ccc21 (stereo not shown) [Example 14, 1-methyl-2-[2-(4-amidino-phenyl)-ethyl]-5-[N-(3-pyrrolidinyl)-benzenesulphonyl-amino]-benzimidazole] | 82
CN1CCCC1CN(c1ccc2c(c1)nc(CCc1ccc(C(=N)N)cc1)n2C)S(=O)(=O)c1ccccc1 (stereo not shown) [Example 9, 1-methyl-2-[2-(4-amidino-phenyl)-ethyl]-5-[N-(1-methyl-pyrrolidin-2-yl-methyl)-benzene-sulphonyl-amino]-benzimidazole] | 62
Cn1c(CCc2ccc(C(=N)N)cc2)nc2cc(N(CCN3CCCCC3)S(=O)(=O)c3ccccc3)ccc21 [Example 33, 1-methyl-2-[2-(4-amidino-phenyl)-ethyl]-5-[N-(2-piperidin-1-ylethyl)-benzene-sulphonylamino]-benzimidazole] | 44
CN1CCCN(C(=O)CN(c2ccc3c(c2)nc(CCc2ccc(C(=N)N)cc2)n3C)S(=O)(=O)c2ccccc2)CC1 [Example 55, 1-Methyl-2-[2-(4-amidino-phenyl)-ethyl]-5-[N-(4-methyl-1,4-diazepin-1-yl-carbonyl-methyl)-benzenesulphonyl-amino]-benzimidazole] | 28
CCN(CC)CCN(c1ccc2c(c1)nc(CCc1ccc(C(=N)N)cc1)n2C)S(=O)(=O)c1cccc2cnccc12 [Example 53, 1-Methyl-2-[2-(4-amidino-phenyl)-ethyl]-5-[N-(2-diethyl-aminoethyl)-isoquinol-5-yl-sulphonylamino]-benzimidazole;] | 38
CCN(CC)CCN(c1ccc2c(c1)nc(CCc1ccc(C(=N)N)cc1)n2C)S(=O)(=O)c1cccc2cccnc12 [Example 52, 1-Methyl-2-[2-(4-amidino-phenyl)-ethyl]-5-[N-(2-diethyl-aminoethyl)-quinol-8-yl-sulphonylamino]-benzimidazole;] | 29
CCN(CC)CCN(c1ccc2c(c1)nc(CCc1ccc(C(=N)N)cc1)n2C)S(=O)(=O)c1ccccc1 [Example 2, N-{2-[2-(4-amidinophenyl)-ethyl]-1-methyl-benzimidazol-5-yl}-N-diethylaminoethyl-(benzenesulphonamide)-dihydrochloride] | 25
CN1CCC(CN(c2ccc3c(c2)nc(CCc2ccc(C(=N)N)cc2)n3C)S(=O)(=O)c2ccccc2)C1 (stereo not shown) [Example 8, 1-methyl-2-[2-(4-amidino-phenyl)-ethyl]-5-[N-(1-methyl-pyrrolidin-3-yl-methyl)-benzene-sulphonyl-amino]-benzimidazole] | 89
CCN(CC)CCN(c1ccc2c(c1)nc(CCc1ccc(CN)cc1)n2C)S(=O)(=O)c1ccccc1 [Example 5, N-{2-[2-(4-aminomethyl-phenyl)-ethyl]-1-methyl-benzimidazol-5-yl}-N-diethylaminoethyl-(benzenesulphonamide)-dihydrochloride] | 100
Cn1c(CCc2ccc(C(=N)N)cc2)nc2cc(N(CC(=O)N3CCNCC3)S(=O)(=O)c3ccc4ccccc4c3)ccc21 [Example 48, 1-Methyl-2-[2-(4-amidino-phenyl)-ethyl]-5-[N-(piperazin-1-yl-carbonylmethyl)-naphth-2-ylsulphonylamino]-benzimidazole] | 144

— patent US6365584B1, “Arylysulphonamide-substituted benzimidazoles having tryptase-inhibiting activity” (Boehringer Ingelheim Pharma KG, priority 1999, dated 2002)
